For experiment [1], the system named is IL-6. Description: LPS-induced IL-6 secretion in primary human monocyte-derived macrophages. The settings on record: for IL-6 Measurements, Mean: LPS, baseline subtracted values.
In experiment [2] the test system is Col1a1. In words: Col1a1 gene expression (RT-qPCR) in primary human hepatic stellate cells stimulated with TGFβ1. Format: cell-based. The settings on record: for Col1a1 Fold Expression Relative to Control, Mean: single amino acid. For orientation: In qPCR the cycle at which signal appears reflects the starting amount.
Experiment [3] concerns MCP1/CCL2. In words: MCP1/CCL2 secretion by ELISA in primary human hepatocytes with FFA + TNFα. Format: cell-based. A general note: ELISA stands for enzyme-linked immunosorbent assay.
The subject of experiment [4] is IL-6. Description: IL-6 cytokine secretion in primary human hepatic stellate cells stimulated with TNFα. The experiment is classed as cell-based. The settings on record: hepatic stellate cells, two donors.
Experiment [5] deals with MCP-1. In words: MCP-1 chemokine secretion in primary human hepatic stellate cells stimulated with TNFα. Format: cell-based. As to conditions: hepatic stellate cells, two donors.
Experiment [6] concerns Procollagen Iα1. In words: Procollagen Iα1 secretion (ELISA) in primary human hepatic stellate cells stimulated with TGFβ1. The experiment is classed as cell-based. As to conditions: hepatic stellate cells, three donors.
For experiment [7], the system named is TNF-α. Description: LPS-induced TNF-α secretion in primary human monocyte-derived macrophages. As to conditions: for TNF-α Measurements Mean (baseline subtracted): 0.15 ng/mL LPS.
Setting [8] is: Donor 2, Conc. 749 μM (baseline).
Where [9] appears, read: Donor 2, Conc. 153 μM (baseline).

As for `N=C(N)NCCC[C@H](N)C(=O)O` [Arginine, L-Arginine], the “LPS-induced IL-6 secretion (summary in words)” value (shortened to “LPS-induced IL-6 secretion”) in experiment [1] (Donor 1) is “increased IL-6 secretion”. In addition, the “Col1a1 gene expression (summary in words)” value in experiment [2] (hepatic stellate cells, three donors) is listed as “did not significantly change Col1a1 gene expression in any donor”. The “Col1a1 Fold Expression Relative to Control, Mean” value in experiment [2] (second donor (Table 27), 1088 μM) is 0.99 fold; in experiment [2] (second donor (Table 27), 2720 μM) it was 1.15 fold; in experiment [2] (second donor (Table 27), 5440 μM), 1.15 fold; in experiment [2] (second donor (Table 29), 1088 μM), 0.95 fold; in experiment [2] (second donor (Table 29), 2720 μM) it was 0.99 fold; in experiment [2] (second donor (Table 29), 5440 μM) it was 1.02 fold. Moreover, in experiment [3] (primary human hepatocytes, two healthy donors), the “MCP1/CCL2 secretion (summary in words)” value was “increased MCP1 secretion”. The “IL-6 secretion (summary in words)” value in experiment [4] is “no significant effect on IL-6 secretion”. Moreover, the “MCP-1 secretion (summary in words)” value in experiment [5] was “no significant impact on MCP-1 secretion”. Further, the “procollagen Iα1 secretion (summary in words)” value in experiment [6] was “significantly increased procollagen Iα1 secretion in two of three donors”.

Regarding `NC(=O)CC[C@H](N)C(=O)O` [Glutamine, L-Glutamine], the entries for the “LPS-induced IL-6 secretion” value in experiment [1] (Donor 1), in experiment [1] (Donor 2) and in experiment [1] (Donor 3) were “increased IL-6 secretion”, “increased IL-6 secretion” and “significantly increased IL-6 secretion”, respectively. The “IL-6 Measurements, Mean” value is listed as 0 in experiment [1] (Donor 1, Conc. 749 μM (baseline)); 2.37E−15 in experiment [1] (setting [8]); 22.52 in experiment [1] (Donor 2, Conc. 3747 μM); 63.31 in experiment [1] (Donor 2, Conc. 11242 μM); 34.39 in experiment [1] (Donor 2, Conc. 22484 μM). Also, the “TNF-α Measurements Mean (baseline subtracted)” value (from here on “TNF-α Measurements Mean”) in experiment [7] (Donor 1, Conc. 3747 μM) is −45.7; in experiment [7] (Donor 1, Conc. 11242 μM), −65.24; in experiment [7] (Donor 1, Conc. 22484 μM), −103.07; in experiment [7] (setting [8]) it was −9.5E−15; in experiment [7] (Donor 2, Conc. 3747 μM), 9.338; in experiment [7] (Donor 2, Conc. 11242 μM) it was 20.04. In addition, the “TNF-α Measurements Mean” value is 11.5 in experiment [7] (Donor 2, Conc. 22484 μM); 0 in experiment [7] (Donor 3, Conc. 749 μM (baseline)); 1.936 in experiment [7] (Donor 3, Conc. 3747 μM); 18 in experiment [7] (Donor 3, Conc. 11242 μM); 29.14 in experiment [7] (Donor 3, Conc. 22484 μM). For the same compound, the “LPS-induced TNF-α secretion (summary in words)” value in experiment [7] (Donor 2) and in experiment [7] (Donor 3) was “increased TNF-α secretion” throughout. Moreover, the “MCP1 expression relative to Control, Mean” value in experiment [3] (Donor 1, Conc. 749 μM) is on record as 0; in experiment [3] (Donor 1, Conc. 3747 μM), −0.8981; in experiment [3] (Donor 1, Conc. 11242 μM) it was −9.001; in experiment [3] (Donor 1, Conc. 22484 μM), −21.8392; in experiment [3] (Donor 2, Conc. 749 μM) it was 2.84E−14; in experiment [3] (Donor 2, Conc. 3747 μM), −45.0574. For the same compound, the “MCP1 expression relative to Control, Mean” value in experiment [3] (Donor 2, Conc. 11242 μM) is −90.6558; in experiment [3] (Donor 2, Conc. 22484 μM), −138.873. Besides, the “IL-6 secretion (summary in words)” value in experiment [4] is recorded as “significantly reduced IL-6 secretion in both donors”. In addition, in experiment [5], the “MCP-1 secretion (summary in words)” value is given as “reduced MCP1 secretion in both donors but was only statistically significant in one of two donors”.

On to `CC(C)C[C@H](N)C(=O)O` [Leucine, L-Leucine], for which the “IL-6 Measurements, Mean” value in experiment [1] (Donor 1, Conc. 153 μM (baseline)) stood at 0; in experiment [1] (setting [9]), 7.11E−15; in experiment [1] (Donor 2, Conc. 3054 μM) it was 29.61; in experiment [1] (Donor 2, Conc. 7635 μM), 30.46; in experiment [1] (Donor 2, Conc. 15270 μM), 47.6. In addition, the “LPS-induced IL-6 secretion” value in experiment [1] (Donor 2) is recorded as “increased IL-6 secretion”. In addition, the “TNF-α Measurements Mean” value in experiment [7] (Donor 1, Conc. 3054 μM) is 42.04; in experiment [7] (Donor 1, Conc. 7635 μM) it was −23.04; in experiment [7] (Donor 1, Conc. 15270 μM) it was −46.21; in experiment [7] (setting [9]), 0; in experiment [7] (Donor 2, Conc. 3054 μM), 31.74; in experiment [7] (Donor 2, Conc. 7635 μM) it was 41.98. The “TNF-α Measurements Mean” value in experiment [7] (Donor 2, Conc. 15270 μM) is listed as 46.69. In experiment [7] (Donor 2), the “LPS-induced TNF-α secretion (summary in words)” value is given as “increased TNF-α secretion”. Further, the “MCP1 expression relative to Control, Mean” value in experiment [3] (Donor 1, Conc. 153 μM) was 5.92E−16; in experiment [3] (Donor 1, Conc. 3054 μM) it was 3.34; in experiment [3] (Donor 1, Conc. 7635 μM) it was 1.896; in experiment [3] (Donor 1, Conc. 15270 μM) it was −1.368; in experiment [3] (Donor 2, Conc. 153 μM), −4.7E−15; in experiment [3] (Donor 2, Conc. 3054 μM), 16.11. In addition, the “MCP1 expression relative to Control, Mean” value was −2.988 in experiment [3] (Donor 2, Conc. 7635 μM) and −26.6436 in experiment [3] (Donor 2, Conc. 15270 μM). Moreover, the “IL-6 secretion (summary in words)” value in experiment [4] is on record as “no significant effect on IL-6 secretion”. For the same compound, in experiment [5], the “MCP-1 secretion (summary in words)” value is “no significant impact on MCP-1 secretion”.

(Values after patent publication US11737999B2, “Amino acid compositions and methods for the treatment of post-acute sequelae of COVID-19” (AXCELLA HEALTH INC., priority 2021, dated 2023).)
